For one test, the target named is HiBiT tagged GSPT1 (Homo sapiens, UniProt P15170+Q96SW2). Nature of the test: GSPT1 degradation assay (HiBiT assay). The test is classed as cell-based. Conditions: for Dmax: HT-1080, HT-1080 cells; for Dmax / HiBiT GSPT1: Dmax: 20 hours, maximum GSPT1 degradation. The method, then: (§1) CK1α and GSPT1 Degradation Assay (HiBiT Assay) The following is an example of an assay that can be used to determine the dose-dependent CK1α and GSPT1 degradation activities of test compounds in a human cell line such as HT-1080 ([…]). HT-1080 cells stably overexpressing wild-type CRBN, GSPT1A(1-138)/G575N mutant and HiBiT tagged CK1α or GSPT1 were seeded into 384-well plates (Cat #3764, Corning) pre-spotted with DMSO or test compounds. Increasing concentrations of test compounds (ranging from 3.162×10^-4 μM to 10 μM at a 3.16-fold increment) or DMSO were dispensed into an empty 384-well plate using an Echo Acoustic Liquid Handler (Beckman Coulter). About 10,000 cells in complete DMEM cell culture media were seeded per well. […] Luminescence was then measured with an EnVision plate reader (PerkinElmer) or a PHERAstar plate reader (BMG Labtech). All CK1α or GSPT1 degradation curves were processed using Collaborative Drug Discovery Vault softwares (Burlingame, CA., www.collaborativedrug.com). CK1α or GSPT1 levels in compound-treated wells were normalized to that of DMSO control and expressed as Percent of Control (PoC, y). […]

A further test concerns the target HiBiT tagged CK1α (Homo sapiens, UniProt P48729+Q96SW2). Nature of the test: CK1α degradation assay (HiBiT assay). It is filed as cell-based. To be noted: 20 hours; for Dmax: HT-1080, HT-1080 cells; for Dmax / HiBiT CK1α: Dmax: maximum CK1α degradation; for DC50 / HiBiT CK1α: Dmax: HT-1080 cells; for DC50: concentration at 50% CK1α degradation. The method, then:
as §1

These results are taken from US12673936B2, “Isoindolinone compounds, and uses thereof” (HANGZHOU GLUBIO PHARMACEUTICAL CO., LTD., priority 2021, dated 2026).

Sequence of HiBiT tagged CK1α (P48729 whole entry): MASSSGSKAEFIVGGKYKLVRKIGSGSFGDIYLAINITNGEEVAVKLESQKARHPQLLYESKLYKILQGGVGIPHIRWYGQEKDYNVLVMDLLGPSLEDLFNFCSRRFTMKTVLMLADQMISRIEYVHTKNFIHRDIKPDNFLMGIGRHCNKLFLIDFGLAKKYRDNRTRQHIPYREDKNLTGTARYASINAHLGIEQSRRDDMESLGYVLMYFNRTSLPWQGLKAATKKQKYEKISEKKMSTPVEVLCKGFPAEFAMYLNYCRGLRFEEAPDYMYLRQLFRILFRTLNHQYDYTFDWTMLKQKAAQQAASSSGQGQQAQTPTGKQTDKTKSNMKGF
Sequence of HiBiT tagged CK1α (Q96SW2 whole entry): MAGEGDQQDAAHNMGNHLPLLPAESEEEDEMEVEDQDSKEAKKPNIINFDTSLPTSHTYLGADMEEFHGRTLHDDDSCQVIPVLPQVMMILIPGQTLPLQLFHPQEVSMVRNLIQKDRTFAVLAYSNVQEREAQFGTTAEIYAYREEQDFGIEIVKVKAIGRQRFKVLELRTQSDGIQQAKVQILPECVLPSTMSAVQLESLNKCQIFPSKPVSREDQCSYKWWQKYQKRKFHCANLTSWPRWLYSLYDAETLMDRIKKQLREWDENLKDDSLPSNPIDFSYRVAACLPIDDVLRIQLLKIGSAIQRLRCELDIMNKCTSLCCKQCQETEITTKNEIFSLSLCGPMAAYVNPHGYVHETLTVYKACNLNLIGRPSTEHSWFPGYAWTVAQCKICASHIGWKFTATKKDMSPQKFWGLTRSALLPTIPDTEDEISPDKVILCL
Sequence of HiBiT tagged CK1α (Q16531 whole entry partner): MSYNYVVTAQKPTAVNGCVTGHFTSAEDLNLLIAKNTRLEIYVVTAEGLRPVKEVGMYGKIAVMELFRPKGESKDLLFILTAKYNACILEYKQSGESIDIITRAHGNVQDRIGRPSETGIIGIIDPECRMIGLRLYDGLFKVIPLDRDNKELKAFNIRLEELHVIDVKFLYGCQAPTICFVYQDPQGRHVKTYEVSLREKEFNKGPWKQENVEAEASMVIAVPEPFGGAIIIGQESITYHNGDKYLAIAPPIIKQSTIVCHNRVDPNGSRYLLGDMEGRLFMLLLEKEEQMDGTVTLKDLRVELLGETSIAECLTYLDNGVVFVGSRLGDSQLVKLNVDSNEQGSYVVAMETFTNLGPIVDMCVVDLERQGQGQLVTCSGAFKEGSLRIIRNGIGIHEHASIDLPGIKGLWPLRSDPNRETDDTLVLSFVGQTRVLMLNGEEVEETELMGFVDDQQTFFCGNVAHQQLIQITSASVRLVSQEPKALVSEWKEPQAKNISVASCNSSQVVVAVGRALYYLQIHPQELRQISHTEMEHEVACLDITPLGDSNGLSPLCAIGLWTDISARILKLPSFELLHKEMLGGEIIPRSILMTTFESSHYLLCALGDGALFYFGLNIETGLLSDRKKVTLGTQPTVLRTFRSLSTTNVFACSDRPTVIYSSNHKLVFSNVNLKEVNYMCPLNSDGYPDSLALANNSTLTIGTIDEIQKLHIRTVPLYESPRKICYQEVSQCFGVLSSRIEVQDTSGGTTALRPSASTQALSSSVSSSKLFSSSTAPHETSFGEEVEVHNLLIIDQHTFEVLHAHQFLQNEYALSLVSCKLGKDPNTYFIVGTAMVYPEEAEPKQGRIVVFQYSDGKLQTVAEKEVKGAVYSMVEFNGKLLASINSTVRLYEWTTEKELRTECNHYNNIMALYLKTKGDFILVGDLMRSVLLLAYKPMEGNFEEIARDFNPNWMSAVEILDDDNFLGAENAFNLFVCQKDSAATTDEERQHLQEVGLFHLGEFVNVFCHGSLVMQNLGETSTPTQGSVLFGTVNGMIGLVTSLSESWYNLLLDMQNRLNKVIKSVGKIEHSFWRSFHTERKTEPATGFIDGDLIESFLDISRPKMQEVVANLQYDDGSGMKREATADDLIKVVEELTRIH
Sequence of HiBiT tagged GSPT1 (P15170 whole entry): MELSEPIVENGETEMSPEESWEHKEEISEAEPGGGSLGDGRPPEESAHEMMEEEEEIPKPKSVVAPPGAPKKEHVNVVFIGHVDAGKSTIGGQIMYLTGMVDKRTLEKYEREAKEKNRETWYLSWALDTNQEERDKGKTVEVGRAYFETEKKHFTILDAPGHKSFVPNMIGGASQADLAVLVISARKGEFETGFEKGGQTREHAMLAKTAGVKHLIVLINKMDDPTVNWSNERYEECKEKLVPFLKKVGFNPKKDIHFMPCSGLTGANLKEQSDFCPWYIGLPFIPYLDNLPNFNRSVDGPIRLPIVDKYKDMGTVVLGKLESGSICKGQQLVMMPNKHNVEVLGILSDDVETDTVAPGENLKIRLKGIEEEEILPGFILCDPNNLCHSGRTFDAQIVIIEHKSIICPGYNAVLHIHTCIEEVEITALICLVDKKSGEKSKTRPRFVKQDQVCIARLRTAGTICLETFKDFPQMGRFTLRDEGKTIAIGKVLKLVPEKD
Sequence of HiBiT tagged GSPT1 (Q96SW2 whole entry): as the sequence (Q96SW2 whole entry) above
Sequence of HiBiT tagged GSPT1 (Q16531 whole entry partner): as the sequence (Q16531 whole entry partner) above

At HiBiT tagged GSPT1, `O=C1CCC(N2Cc3cc(C(=O)N[C@H](c4c(F)cccc4F)C4CCC4)ccc3C2=O)C(=O)N1` (stereo in doubt) [Compound 67, N-((*S)-cyclobutyl(2,6-difluorophenyl)methyl)-2-(2,6-dioxopiperidin-3-yl)-1-oxoisoindoline-5-carboxamide] registered a Dmax of 31.7%. Besides, on HiBiT tagged CK1α, the Dmax stood at 76.4% and the DC50 amounted to 40 nM.
Regarding `O=C1CCC(N2Cc3cc(C(=O)N[C@H](c4ccc(F)cc4)C4CCCC4)ccc3C2=O)C(=O)N1` (mixture of isomers) [Compound 61, N-((*S)-cyclopentyl(4-fluorophenyl)methyl)-2-((R)-2,6-dioxopiperidin-3-yl)-1-oxoisoindoline-5-carboxamide], the results for the Dmax at HiBiT tagged GSPT1 and on HiBiT tagged CK1α were 29.3% and 49.5%, respectively.
On HiBiT tagged GSPT1, `COc1cccc([C@@H](NC(=O)c2ccc3c(c2)CN(C2CCC(=O)NC2=O)C3=O)C2CC2)c1` (stereo in doubt) [Compound 32, N-((*S)-cyclopropyl(3-methoxyphenyl)methyl)-2-(2,6-dioxopiperidin-3-yl)-1-oxoisoindoline-5-carboxamide] displayed a Dmax of 36.3%. On HiBiT tagged CK1α, this molecule showed a Dmax of 59.3% and a DC50 of 198 nM.
The matching figures for `O=C1CCC(N2Cc3cc(C(=O)NC(c4ccc(F)cc4)C4CCCC4)ccc3C2=O)C(=O)N1` (stereo not drawn) [Compound 37, N-(cyclopentyl(4-fluorophenyl)methyl)-2-(2,6-dioxopiperidin-3-yl)-1-oxoisoindoline-5-carboxamide]: 36.2%, 70.8% and 72.7 nM.
The like results for `O=C1CCC(N2Cc3cc(C(=O)N[C@H](c4ccccc4F)C4CC4)ccc3C2=O)C(=O)N1` (stereo in doubt) [Compound 11, N-((*S)-cyclopropyl(2-fluorophenyl)methyl)-2-(2,6-dioxopiperidin-3-yl)-1-oxoisoindoline-5-carboxamide] were, in that order, 23.4%, 64.7% and 308 nM.
Consider `O=C1CCC(N2Cc3cc(C(=O)NC(c4ncccc4Cl)C4CC4)ccc3C2=O)C(=O)N1` (stereo not drawn) [Compound 16, N-((3-chloropyridin-2-yl)(cyclopropyl)methyl)-2-(2,6-dioxopiperidin-3-yl)-1-oxoisoindoline-5-carboxamide], for which the Dmax on HiBiT tagged GSPT1 came to 44.9%; on HiBiT tagged CK1α it was 62.2%. Also, the DC50 on HiBiT tagged CK1α worked out at 303 nM.
As for `COc1cccc([C@H](NC(=O)c2ccc3c(c2)CN(C2CCC(=O)NC2=O)C3=O)C2CC2)c1` (stereo in doubt) [Compound 31, N-((*R)-cyclopropyl(3-methoxyphenyl)methyl)-2-(2,6-dioxopiperidin-3-yl)-1-oxoisoindoline-5-carboxamide], the Dmax at HiBiT tagged GSPT1 worked out at 60%; at HiBiT tagged CK1α, 48.1%.
As to `O=C1CC[C@H](N2Cc3cc(C(=O)N[C@H](c4ccc(Cl)cc4F)C4CCC4)ccc3C2=O)C(=O)N1` (racemic) [Compound 55, N-((*S)-(4-chloro-2-fluorophenyl)(cyclobutyl)methyl)-2-((*S)-2,6-dioxopiperidin-3-yl)-1-oxoisoindoline-5-carboxamide], the “HiBiT GSPT1: Dmax” value on HiBiT tagged GSPT1 (HT-1080 cells) was determined as 48%. On HiBiT tagged CK1α, this molecule yielded a Dmax of 57.8% and a DC50 of 948 nM.
As for `O=C1CCC(N2Cc3cc(C(=O)NC(c4cccc(F)c4)C4CCC4)ccc3C2=O)C(=O)N1` (stereo not drawn) [Compound 23, N-(cyclobutyl(3-fluorophenyl)methyl)-2-(2,6-dioxopiperidin-3-yl)-1-oxoisoindoline-5-carboxamide], at HiBiT tagged GSPT1, the Dmax is 32%. At HiBiT tagged CK1α, the Dmax was determined as 61.3% and half-maximal degradation (DC50) was put at 198 nM.
For the molecule `O=C1CC[C@H](N2Cc3cc(C(=O)N[C@H](c4ccc(F)cc4Cl)C4CCC4)ccc3C2=O)C(=O)N1` (racemic) [Compound 51, N-((*S)-(2-chloro-4-fluorophenyl)(cyclobutyl)methyl)-2-((*S)-2,6-dioxopiperidin-3-yl)-1-oxoisoindoline-5-carboxamide], the Dmax at HiBiT tagged GSPT1 was found to be 46%. For the same molecule, on HiBiT tagged CK1α, the Dmax amounted to 62.3% and the DC50 was found to be 142 nM.
Regarding `O=C1CCC(N2Cc3cc(C(=O)N[C@H](c4ncc(Cl)cc4F)C4CCC4)ccc3C2=O)C(=O)N1` (stereo in doubt) [Compound 80, N-((*S)-(5-chloro-3-fluoropyridin-2-yl)(cyclobutyl)methyl)-2-(2,6-dioxopiperidin-3-yl)-1-oxoisoindoline-5-carboxamide], the figures for the Dmax at HiBiT tagged GSPT1 and at HiBiT tagged CK1α were 14.2% and 61.1%, respectively. Moreover, on HiBiT tagged CK1α, half-maximal degradation (DC50) was put at 652 nM.
As for `O=C1CC[C@H](N2Cc3cc(C(=O)N[C@H](c4ccc(F)c(F)c4)C4CCC4)ccc3C2=O)C(=O)N1` (racemic) [Compound 48, N-((*S)-cyclobutyl(3,4-difluorophenyl)methyl)-2-((S)-2,6-dioxopiperidin-3-yl)-1-oxoisoindoline-5-carboxamide], at HiBiT tagged GSPT1 (HT-1080 cells), the “HiBiT GSPT1: Dmax” value worked out at 26.2%. In addition, on HiBiT tagged CK1α, the 50% degradation concentration (DC50) was 130 nM and the “HiBiT CK1α: Dmax” value stood at 66.2%.
`O=C1CCC(N2Cc3cc(C(=O)NC(c4ccc(F)cc4Cl)C4CCC4)ccc3C2=O)C(=O)N1` (single isomer, unassigned) [Compound 53, N-((*S)-(2-chloro-4-fluorophenyl)(cyclobutyl)methyl)-2-((*S)-2,6-dioxopiperidin-3-yl)-1-oxoisoindoline-5-carboxamide] displayed a Dmax on HiBiT tagged GSPT1 of 24.2%. Besides, on HiBiT tagged CK1α, the Dmax stood at 70.2% and half-maximal degradation (DC50) was put at 118 nM.
The matching figures for `O=C1CC[C@@H](N2Cc3cc(C(=O)NC(c4ccc(F)c(F)c4)C4CCC4)ccc3C2=O)C(=O)N1` (single isomer, unassigned) [Compound 49, N-((*S)-cyclobutyl(3,4-difluorophenyl)methyl)-2-((R)-2,6-dioxopiperidin-3-yl)-1-oxoisoindoline-5-carboxamide]: 28.6%, 68.6% and 112 nM.
The matching figures for `O=C1CC[C@@H](N2Cc3cc(C(=O)NC(c4ccc(F)cc4)C4CCCC4)ccc3C2=O)C(=O)N1` (single isomer, unassigned) [Compound 62, N-((*S)-cyclopentyl(4-fluorophenyl)methyl)-2-((R)-2,6-dioxopiperidin-3-yl)-1-oxoisoindoline-5-carboamide]: 27.5%, 69.8% and 77.7 nM.
For `O=C1CCC(N2Cc3cc(C(=O)N[C@H](c4ccc(F)cc4)C4CC4)ccc3C2=O)C(=O)N1` (stereo in doubt) [Compound 10, N-((*S)-cyclopropyl(4-fluorophenyl)methyl)-2-(2,6-dioxopiperidin-3-yl)-1-oxoisoindoline-5-carboxamide], the Dmax was found to be 36% on HiBiT tagged GSPT1 and 60.8% on HiBiT tagged CK1α. In addition, at HiBiT tagged CK1α, the DC50 turned out to be 706 nM.
Molecule `Cc1ccc(NC(=O)NCc2ccc3c(c2)CN(C2CCC(=O)NC2=O)C3=O)cc1Cl` (stereo not drawn) [CC-885, reference compound] showed a Dmax on HiBiT tagged GSPT1 of 92.5%. Also, on HiBiT tagged GSPT1 (HT-1080 cells), the “GSPT1 degradation (in words)” value is recorded as “effectively degraded GSPT1”. Moreover, on HiBiT tagged CK1α, the Dmax was found to be 53.7% and half-maximal degradation (DC50) was put at 653 nM.
Regarding `O=C1CC[C@H](N2Cc3cc(C(=O)N[C@H](c4ccc(Cl)cc4F)C4CCC4)ccc3C2=O)C(=O)N1` (racemic) [Compound 57, N-((*S)-(4-chloro-2-fluorophenyl)(cyclobutyl)methyl)-2-((*S)-2,6-dioxopiperidin-3-yl)-1-oxoisoindoline-5-carboxamide], the “HiBiT GSPT1: Dmax” value at HiBiT tagged GSPT1 (HT-1080 cells) came out at 19.1%. Further, on HiBiT tagged CK1α, half-maximal degradation (DC50) was put at 128 nM and the “HiBiT CK1α: Dmax” value is on record as 64.4%.
Consider `O=C1CCC(N2Cc3cc(C(=O)N[C@H](c4cccc(Cl)c4)C4CC4)ccc3C2=O)C(=O)N1` (stereo in doubt) [Compound 28, N-((*S)-(3-chlorophenyl)(cyclopropyl)methyl)-2-(2,6-dioxopiperidin-3-yl)-1-oxoisoindoline-5-carboxamide], for which, at HiBiT tagged GSPT1, the greatest degradation seen (Dmax) was 70.8%. At HiBiT tagged CK1α, this molecule gave a Dmax of 60.1% and a DC50 of 1150 nM.
With `Cc1cccc([C@@H](NC(=O)c2ccc3c(c2)CN(C2CCC(=O)NC2=O)C3=O)C2CC2)c1` (stereo in doubt) [Compound 30, N-((*S)-cyclopropyl(m-tolyl)methyl)-2-(2,6-dioxopiperidin-3-yl)-1-oxoisoindoline-5-carboxamide], the figures for the Dmax on HiBiT tagged GSPT1 and at HiBiT tagged CK1α were 62.1% and 47.9%, respectively.
As for `O=C1CC[C@@H](N2Cc3cc(C(=O)N[C@H](c4ccc(Cl)cc4F)C4CCC4)ccc3C2=O)C(=O)N1` (racemic) [Compound 54, N-((*S)-(4-chloro-2-fluorophenyl)(cyclobutyl)methyl)-2-((*R)-2,6-dioxopiperidin-3-yl)-1-oxoisoindoline-5-carboxamide], the “HiBiT GSPT1: Dmax” value on HiBiT tagged GSPT1 (HT-1080 cells) worked out at 47.9%. On HiBiT tagged CK1α, this molecule came in with a Dmax of 56.5% and a DC50 of 1110 nM.
For the molecule `O=C1CCC(N2Cc3cc(C(=O)N[C@@H](c4ccc(Cl)cn4)C4CCC4)ccc3C2=O)C(=O)N1` (stereo in doubt) [Compound 77, N—((*R)-(5-chloropyridin-2-yl)(cyclobutyl)methyl)-2-(2,6-dioxopiperidin-3-yl)-1-oxoisoindoline-5-carboxamide], the “HiBiT GSPT1: Dmax” value on HiBiT tagged GSPT1 (HT-1080 cells) was 23.5%. The “HiBiT CK1α: Dmax” value at HiBiT tagged CK1α was 41.1%.
